Measured values taken from US20030171545A1, “Novel Protein” (priority 1999, published 2003).
“Also recorded” adds a separate entry of the source.

Columns and labels:
LTRGW1 [1] = molecular target: T1, LTRGW1 (Homo sapiens, UniProt Q9NPC1); conditions: leukotriene binding to LTRGW1; Kamohara et al; cited from earlier work
T1 sequence (Q9NPC1 1-358): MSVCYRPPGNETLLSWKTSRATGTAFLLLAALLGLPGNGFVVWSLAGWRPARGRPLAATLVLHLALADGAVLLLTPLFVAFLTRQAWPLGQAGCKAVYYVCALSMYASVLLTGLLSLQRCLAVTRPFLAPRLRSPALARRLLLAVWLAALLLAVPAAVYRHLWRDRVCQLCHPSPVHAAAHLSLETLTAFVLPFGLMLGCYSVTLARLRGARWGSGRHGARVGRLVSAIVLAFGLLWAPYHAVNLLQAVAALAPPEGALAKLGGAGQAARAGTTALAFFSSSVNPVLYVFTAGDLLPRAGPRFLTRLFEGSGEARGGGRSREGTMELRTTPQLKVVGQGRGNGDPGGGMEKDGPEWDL

LTRGW1 [2] = molecular target: T1, LTRGW1; conditions: Kamohara et al; cited from earlier work
[3] = molecular target: T2, BLTR and LTRGW1 co-expressed (Homo sapiens, UniProt Q15722+Q9NPC1); assay: [3H]LTB4 binding to membranes of transfected CHO cells, scintillation proximity assay; conditions: [3H]LTB4, membranes of transfected CHO cells; compared with BLTR or LTRGW1 alone; FIG. 2
T2 construct: expressed in transfected cells; host or cells: CHO
T2 sequence (Q15722 whole entry, one chain of several): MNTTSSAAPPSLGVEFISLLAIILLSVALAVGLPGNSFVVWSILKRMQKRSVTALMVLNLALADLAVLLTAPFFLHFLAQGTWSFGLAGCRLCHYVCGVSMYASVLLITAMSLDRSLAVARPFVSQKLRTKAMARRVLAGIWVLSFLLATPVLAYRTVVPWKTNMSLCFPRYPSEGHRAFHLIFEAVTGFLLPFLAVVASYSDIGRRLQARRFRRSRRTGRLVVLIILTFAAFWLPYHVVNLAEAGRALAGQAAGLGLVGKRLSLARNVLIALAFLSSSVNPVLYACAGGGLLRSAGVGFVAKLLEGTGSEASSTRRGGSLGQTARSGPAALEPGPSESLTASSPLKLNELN
Method: CHO cells were transfected with DNA as described in Example 1. [^3H] LTB4 binding to membrane preparations from transfected cells was measured using wheat germ agglutinin beads in a scintillation proximity assay. The assay was carried out in 50: g Hepes 20: g MgCl2 in a total assay volume of 100: g. [^3H] LTB4 was used to measure total binding. [^3H] LTB4 was then displaced with unlabelled LTB4 to measure non-specific binding (NSB). The binding of LTB4 to cells expressing BLTR cells co-expressing BLTR and LTRGW1 and cells expressing LTRGW1 is illustrated in FIG. 2.

BLTR/LTRGW1 = assay: FLIPR intracellular calcium response to LTB4, CHO cells co-transfected with BLTR and LTRGW1; format: cell-based, human
Method: (§1) […] total DNA was transfected into CHO cells using the following transfection mix: 5 μg BLTR, pcDNA3 as needed to keep constant the amount of total DNA used, 1 μg pCMV-luciferase and BLTR-2 at various concentration. Responses to LTB4 (between 10^−10 and 10^−7 M) were measured using a FLIPR assay (Fluorescence Imaging Plate Reader—Molecular Devices) and values were normalised relative to the luciferase reading.

LTRGW1 [4] = molecular target: T1, LTRGW1; conditions: Yokomizo et al; cited from earlier work
LTRGW1 [5] = assay: FLIPR intracellular calcium response to LTB4, CHO cells transfected with LTRGW1 alone; format: cell-based, human
Method: […] Responses to LTB4 (between 10^−10 and 10^−7 M) were measured using a FLIPR assay (Fluorescence Imaging Plate Reader—Molecular Devices) and values were normalised relative to the luciferase reading.

BLTR = molecular target: T3, BLTR (Homo sapiens, UniProt Q15722); assay: FLIPR intracellular calcium response to LTB4, CHO cells transfected with BLTR; format: cell-based; conditions: LTB4 10^-10 to 10^-7 M
T3 construct: expressed in transfected cells; host or cells: CHO
T3 sequence (Q15722 whole entry): as the sequence (Q15722 whole entry, one chain of several) above
Method: as §1

[6] = system: Mock transfected CHO cells; assay: FLIPR intracellular calcium response to LTB4, mock transfected CHO cells; format: cell-based; conditions: LTB4 10^-10 to 10^-7 M, normalised to luciferase
Method: as §1

## CCCCC/C=C\C[C@H](O)/C=C/C=C/C=C\[C@@H](O)CCCC(=O)O [12-epi-LTB4]
LTRGW1 [1]
  Forskolin-stimulated intracellular cAMP accumulation: inhibition

## CCCCCCCC[C@H](O)/C=C/C=C\C=C\[C@H](O)CCCC(=O)O [LTB3]
LTRGW1 [1]
  Forskolin-stimulated intracellular cAMP accumulation: inhibition

## CCCCC/C=C\C[C@@H](O)/C=C/C=C/C=C\[C@@H](O)CCCC(=O)O [LTB4]
LTRGW1 [2]
  Chemotaxis: induces chemotaxis
[3]
  LTB4 binding to cells co-expressing BLTR and LTRGW1: enhancement
BLTR/LTRGW1; CHO cells transfected with BLTR/LTRGW1(276), FLIPR
  Response to LTB4: Active
BLTR/LTRGW1; compared with BLTR alone, increase proportional to amount of LTRGW1 in transfection mix, FIG. 1
  Response of BLTR to LTB4 when LTRGW1 is co-expressed: increased
LTRGW1 [4]
  Cellular calcium: increases cellular calcium; also recorded: increases intracellular calcium
LTRGW1 [5]; CHO cells transfected with LTRGW1(274)
  Response to LTB4: Inactive
LTRGW1 [5]; CHO cells transfected with LTRGW1(275)
  Response to LTB4: Inactive
LTRGW1 [5]; CHO cells transfected with LTRGW1(276)
  Response to LTB4: Inactive
LTRGW1 [5]; LTRGW1 expressed alone in CHO cells
  Mobilisation of intracellular calcium in response to LTB4: does not induce a detectable mobilisation of intracellular calcium
BLTR
  Response to LTB4: Active
LTRGW1 [1]
  Forskolin-stimulated intracellular cAMP accumulation: inhibition
[6]
  Response to LTB4: Inactive

## CC/C=C\C/C=C\C[C@@H](O)/C=C/C=C/C=C\[C@@H](O)CCCC(=O)O [LTB5]
LTRGW1 [1]
  Forskolin-stimulated intracellular cAMP accumulation: inhibition
